Measurements taken from ChEMBL document CHEMBL1139234, “Optimization of monocarboxylate transporter 1 blockers through analysis and modulation of atropisomer interconversion properties” (J Med Chem, 2007).
In brackets after ≈: the same amount, converted by molar mass.

Experiment: physchem
Conditions: octanol/water

SMILES | logD
CC(C)Cn1c(=O)n(C)c(=O)c2c(C(=O)N3CC[C@@H](O)C3)c(Oc3cccc4ccccc34)sc21 | 2.9
CON(C)C(=O)c1c(Cn2c(C)nc(Cl)c2Cl)sc2c1c(=O)n(C)c(=O)n2CC(C)C | 2.3
Cc1n[nH]c(C)c1Cc1sc2c(c1C(=O)N1C[C@H](O)CO1)c(=O)n(C)c(=O)n2CC(C)C | 1.1
CNc1nc2ccccc2n1Cc1sc2c(c1C(=O)N1C[C@H](O)CO1)c(=O)n(C)c(=O)n2CC(C)C | 1.8
CC(C)Cn1c(=O)n(C)c(=O)c2c(C(=O)N3C[C@H](O)CO3)c(Cc3ccccc3C(F)(F)F)sc21 | 3.2
CC(C)Cn1c(=O)n(C)c(=O)c2c(C(=O)N3C[C@H](O)CO3)c(Cc3c[nH]c4ncccc34)sc21 | 2
CC(C)Cn1c(=O)n(C)c(=O)c2c(C(=O)N3CC[C@@H](O)C3)c(Cc3ccnc4ccc(F)cc34)sc21 | 2
CC(C)n1c(=O)n(C)c(=O)c2c(C(=O)N3CCS(=O)(=O)C3)c(Cc3ccccc3C(F)(F)F)sc21 | 2.6

Experiment: Solubility of the compound
Assay type: physicochemical
Conditions: not given

SMILES | solubility [µg/mL]
Cc1n[nH]c(C)c1Cc1sc2c(c1C(=O)N1C[C@H](O)CO1)c(=O)n(C)c(=O)n2CC(C)C | 2900 (≈ 6.28 mM)
CC(C)Cn1c(=O)n(C)c(=O)c2c(C(=O)N3CC[C@@H](O)C3)c(Cc3ccnc4ccccc34)sc21 | 500 (≈ 1.02 mM)
